Measured values reported in paper PMC7011792 (Journal of Enzyme Inhibition and Medicinal Chemistry, 2017).

Key:
Format in all cases: biochemical
[1] = molecular target: T1, BuChE (EC 3.1.1.8) from horse serum (Equus caballus, UniProt P81908); assay: biochemical; details: BuChE from horse serum; mean ± SEM of three experiments
T1 construct: purchased Sigma-Aldrich C0663; host or cells: equine serum
Experimental: (§1) AChE (EC 3.1.1.7, Type VI-S, from electric eel, C3389; from human, C1682) and BuChE (EC 3.1.1.8, from equine serum, C0663; from human, B4186), 5,5'-dithiobis (2-nitrobenzoic acid) (DTNB, D218200), acetylthiocholine iodide (ATC, A5751), and butyrylthiocholine iodide (BTC, B3253) were obtained from Sigma-Aldrich (St. Louis, MO).
The inhibitory effects of the synthesised compounds in this paper were evaluated according to our previously reported method. […] ATC/BTC iodide solution (0.075 M) was prepared in deionised water. […] The assay buffer was prepared as follows: potassium dihydrogen phosphate (1.36 g, 10 mmol) was dissolved in 100 ml of water. The pH of the solution was then adjusted to 8.0 ± 0.1 with KOH. Stock solutions of the test samples were dissolved in ethanol to give a final concentration of 10^−4 M when diluted to the final volume of 3.32 ml. For each compound, a dilution series of at least five different concentrations (normally 10^−5–10^−9 M) were prepared.
For measurement, a cuvette containing 3.0 ml of phosphate buffer, 100 µL of AChE or BuChE, 100 µL of DTNB, and 100 µL of the test compound solution were added in sequence. The reaction was initiated after adding 20 µL of ATC or BTC, and the solution was mixed immediately. […] For the reference value, 100 µL of water replaced the test compound solution. For the blank control, additionally 100 µL of water replaced the enzyme solution. The measurement for each concentration was assayed in triplicate. GraphPad Prism 5 was used for data processing. The inhibition curve was fitted by plotting percentage enzyme activity (100% for the reference) versus logarithm of test compound concentration. The IC50 values were calculated according to the curve, and the data were shown in mean ± SEM.
The inhibitory effects on ChEs of all the target compounds were determined according to Ellman’s method. AChE from electrophorus electricus (eeAChE) and BuChE from equine serum (eqBuChE) were used in the assays.

[2] = molecular target: T2, AChE (EC 3.1.1.7) from human (Homo sapiens, UniProt P22303); assay: Human AChE inhibition, Ellman's method
T2 construct: purchased Sigma-Aldrich C1682
T2 sequence (P22303 32-614): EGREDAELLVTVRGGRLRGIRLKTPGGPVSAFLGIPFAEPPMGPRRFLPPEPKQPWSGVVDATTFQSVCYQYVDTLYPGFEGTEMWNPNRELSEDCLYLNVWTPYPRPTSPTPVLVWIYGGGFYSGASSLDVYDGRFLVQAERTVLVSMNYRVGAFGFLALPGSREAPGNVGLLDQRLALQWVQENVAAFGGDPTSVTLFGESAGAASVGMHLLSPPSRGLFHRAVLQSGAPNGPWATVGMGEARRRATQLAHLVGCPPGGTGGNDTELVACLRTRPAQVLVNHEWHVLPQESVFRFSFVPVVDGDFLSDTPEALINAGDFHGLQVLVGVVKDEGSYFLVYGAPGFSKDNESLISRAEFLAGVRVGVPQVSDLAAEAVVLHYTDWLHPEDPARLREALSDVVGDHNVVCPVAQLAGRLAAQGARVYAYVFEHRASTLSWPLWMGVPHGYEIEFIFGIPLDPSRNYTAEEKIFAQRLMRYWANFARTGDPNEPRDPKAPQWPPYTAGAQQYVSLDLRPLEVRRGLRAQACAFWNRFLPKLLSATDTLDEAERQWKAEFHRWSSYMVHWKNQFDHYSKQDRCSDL
Experimental: as §1
The inhibitory effects of the synthesised compounds in this paper were evaluated according to our previously reported method. Briefly, AChE/BuChE stock solution was diluted to give 2.5 units/mL (for eeAChE, eqBuChE, and huAChE) or 0.5 units/mL for huBuChE. ATC/BTC iodide solution (0.075 M) was prepared in deionised water. DTNB solution (0.01 M) was prepared using water containing 0.15% (w/v) sodium bicarbonate. The assay buffer was prepared as follows: potassium dihydrogen phosphate (1.36 g, 10 mmol) was dissolved in 100 ml of water. The pH of the solution was then adjusted to 8.0 ± 0.1 with KOH. Stock solutions of the test samples were dissolved in ethanol to give a final concentration of 10^−4 M when diluted to the final volume of 3.32 ml. For each compound, a dilution series of at least five different concentrations (normally 10^−5–10^−9 M) were prepared.
For measurement, a cuvette containing 3.0 ml of phosphate buffer, 100 µL of AChE or BuChE, 100 µL of DTNB, and 100 µL of the test compound solution were added in sequence. The reaction was initiated after adding 20 µL of ATC or BTC, and the solution was mixed immediately. Two minutes (eeAChE and eqBuChE) or 15 min (huAChE and huBuChE) after ATC or BTC addition, the absorption was measured at 25 °C (eeAChE and eqBuChE) or 37 °C (huAChE and huBuChE) at 412 nm, using a Shimadzu 160 spectrophotometer. For the reference value, 100 µL of water replaced the test compound solution. For the blank control, additionally 100 µL of water replaced the enzyme solution. The measurement for each concentration was assayed in triplicate. GraphPad Prism 5 was used for data processing. The inhibition curve was fitted by plotting percentage enzyme activity (100% for the reference) versus logarithm of test compound concentration. The IC50 values were calculated according to the curve, and the data were shown in mean ± SEM.

[3] = molecular target: T3, huAChE (Homo sapiens, UniProt P22303); assay: Kinetic study of huAChE inhibition (Lineweaver-Burk, Michaelis-Menten); details: Lineweaver–Burk plots, 1, 2, 4, 10 nM
T3 construct: purchased Sigma-Aldrich C1682
T3 sequence (P22303 32-614): as above
Experimental: (§2) Kinetic studies were performed according to methods reported previously. The concentrations of the substrate ATC or BTC were prepared as 25, 50, 90, 150, 226, and 452 µM. Different concentrations of compound 19 with 0, 1, 2, 4, 10 nM, were also prepared by stock solution. For measurement, the enzymatic reaction was extended to 20 min (huAChE and huBuChE) before the determination of the absorption. Graph Pad Prism 5 was applied for data processing. Vmax and Km values of the Michaelis–Menten kinetics were determined by nonlinear regression from substrate-velocity curves, while Lineweaver–Burk plots were fitted by using linear regression method.

[4] = molecular target: T4, huBuChE (Homo sapiens, UniProt P06276); assay: Kinetic study of huBuChE inhibition (Lineweaver-Burk, Michaelis-Menten); details: Lineweaver–Burk plots, 1, 2, 4, 10 nM
T4 construct: purchased Sigma-Aldrich B4186
T4 sequence (P06276 29-602): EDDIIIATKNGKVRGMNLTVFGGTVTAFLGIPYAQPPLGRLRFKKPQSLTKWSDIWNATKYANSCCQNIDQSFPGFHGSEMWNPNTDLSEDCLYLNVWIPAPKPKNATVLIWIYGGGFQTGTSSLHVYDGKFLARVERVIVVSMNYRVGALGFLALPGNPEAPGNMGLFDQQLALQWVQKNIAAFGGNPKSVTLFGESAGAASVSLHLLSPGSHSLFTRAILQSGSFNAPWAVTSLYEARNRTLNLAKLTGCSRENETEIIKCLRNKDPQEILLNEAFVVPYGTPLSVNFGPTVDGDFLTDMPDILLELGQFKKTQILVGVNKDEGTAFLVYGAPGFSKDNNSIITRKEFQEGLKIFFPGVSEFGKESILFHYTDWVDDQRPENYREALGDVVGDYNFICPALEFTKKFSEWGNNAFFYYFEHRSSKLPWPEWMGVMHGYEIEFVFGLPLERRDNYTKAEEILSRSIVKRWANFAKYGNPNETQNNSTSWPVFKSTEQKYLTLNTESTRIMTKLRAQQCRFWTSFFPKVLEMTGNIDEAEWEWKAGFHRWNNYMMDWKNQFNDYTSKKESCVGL
Experimental: as §2

T1 sequence (P81908 whole entry): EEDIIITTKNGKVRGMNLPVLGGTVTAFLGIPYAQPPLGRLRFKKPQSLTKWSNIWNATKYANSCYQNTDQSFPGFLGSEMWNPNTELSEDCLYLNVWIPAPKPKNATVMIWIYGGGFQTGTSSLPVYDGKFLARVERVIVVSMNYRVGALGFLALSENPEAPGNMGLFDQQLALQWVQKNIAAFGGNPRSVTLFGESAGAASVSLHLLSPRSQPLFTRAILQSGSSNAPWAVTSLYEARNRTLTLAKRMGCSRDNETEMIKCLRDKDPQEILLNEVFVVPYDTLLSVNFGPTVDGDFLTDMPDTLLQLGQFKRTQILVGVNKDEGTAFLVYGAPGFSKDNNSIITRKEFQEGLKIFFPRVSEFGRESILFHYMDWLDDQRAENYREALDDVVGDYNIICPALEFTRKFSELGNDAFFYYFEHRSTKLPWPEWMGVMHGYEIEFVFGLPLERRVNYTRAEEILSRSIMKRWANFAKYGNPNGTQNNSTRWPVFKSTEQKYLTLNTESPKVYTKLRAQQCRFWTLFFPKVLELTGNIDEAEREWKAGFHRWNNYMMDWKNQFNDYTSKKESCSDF

O=C(/C=C/c1ccc([N+](=O)[O-])cc1)NCCCCCCNc1c2c(nc3ccccc13)CCCC2 [Compound 19, (E)-3-(4-nitrophenyl)-N-(6-((1,2,3,4-tetrahydroacridin-9-yl)amino)hexyl)acrylamide]
IC50 [1]: 6.5 ± 0.6 nM
IC50 ([2]; huAChE, mean ± SEM): 10.2 nM
Selectivity index (SI) = BuChE IC50/AChE IC50, human enzymes ([2]; huBuChE IC50 / huAChE IC50): 0.6
type of inhibition on huAChE [3]: noncompetitive
type of inhibition on huBuChE [4]: mixed-type inhibition
